The record followed here is patent US20260097022A1, “COMPOUNDS AND USES THEREOF” (Integrated Biosciences, Inc., priority 2023, published 2026).

The structures appear in SMILES notation.

The test system of assay [1] is late-passage IMR-90 cells. In words: Replicative senescence model, resazurin cell viability. To be noted: early- versus late-passage IMR-90 cells. Type of assay: cell-based, human. The procedure: Cell culture. Human lung fibroblast (IMR-90) cells were obtained from ATCC (CCL-186) and passaged less than 10 times (less than 30 population doublings) for all experiments described in this example, with the exception of high-passage cells used in the model of replicative senescence (see the section on Replicative senescence below). Cells were cultured in growth media comprising Eagle's Minimum Essential Medium (EMEM: ATCC 30-2003) supplemented with 10% fetal bovine serum (FBS: Thermo Fisher 16140071) and 1% penicillin-streptomycin (Thermo Fisher 15070063). Cells were incubated in a humidity-controlled incubator at 37° C., with 5% CO2. Cells were detached using trypsin-EDTA (0.05%; Gibco 25300120).
Cells were then plated as described below.
Chemical screening. For all screening experiments. 99 μL of cells were plated into each well of a 96-well clear flat-bottom, black polystyrene tissue-culture-treated plate (Corning 3904) at a density of ˜10+ cells/well. Plates were incubated overnight for adhesion. The day after plating. […] After an additional 1 day of incubation, the fluorescence excitation/emission at 550/590 nm was read using a SpectraMaxR M3 plate reader and manufacturer software (SoftMax Pro R 6). […]
Calculation of cellular viability values in dose-response curves. […] For each sample, the fluorescence intensity value was normalized by the mean of two untreated control values. […]
In general terms: Resazurin is reduced to fluorescent resorufin, in cell work by metabolically active cells.

A further assay deals with HEK293 cells. In words: Cytotoxicity against HEK293 cells (resazurin). Particulars: 3 days treatment, curve-fitting, two biological replicates. Type of assay: cell-based, human. Here is the method:
Measuring cytotoxicity against HepG2 and HEK293 cells. Cytotoxicity in human embryonic kidney (HEK293) and liver carcinoma (HepG2) cells was assayed as above using a resazurin assay. Cells were obtained from ATCC (ATCC CRL-1573 and HB-8065), passaged <10 times, and grown in Dulbecco's modification of Eagle's Medium (DMEM: Corning 10^−013-CV) supplemented with 10% FBS and 1% penicillin-streptomycin. 99 μL of cells were plated into each well of a 96-well clear flat-bottom, black polystyrene tissue-culture-treated plate at a density of ˜10+ cells/well, and plates were incubated overnight for adhesion. The day after plating. 1 μL of each compound, prepared as two-fold serial dilutions of 5 mM stock solutions in DMSO, was added to each well. Cells were incubated for 3 days, after which resazurin was added to each well to a final concentration of 0.15 mM. After an additional 1 day of incubation, the fluorescence excitation/emission at 550/590 nm was read using a SpectraMax M3 plate reader. Experiments were performed in biological duplicate. IC50 values were determined by normalizing with respect to the fluorescence intensity values of untreated control cells on day 3, as described in Calculation of cellular viability values in dose-response curves above.

For the next assay, the target named is T1, Bcl-2 (Homo sapiens, UniProt P10415).
T1 construct: purchased BPS Bioscience 50222
T1 sequence (P10415 whole entry): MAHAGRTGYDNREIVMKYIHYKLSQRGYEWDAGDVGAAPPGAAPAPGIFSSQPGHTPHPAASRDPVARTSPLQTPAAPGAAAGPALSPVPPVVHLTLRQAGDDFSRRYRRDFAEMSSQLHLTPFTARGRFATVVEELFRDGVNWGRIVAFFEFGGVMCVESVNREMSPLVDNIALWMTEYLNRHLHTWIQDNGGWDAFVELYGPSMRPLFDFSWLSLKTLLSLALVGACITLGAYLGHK
Description: BCL-2 TR-FRET, inhibition of Bcl-2 binding to a peptide ligand. To be noted: at micromolar concentrations. The procedure: BCL-2 TR-FRET. Inhibition of Bcl-2 binding to a peptide ligand was measured using the BCL-2 TR-FRET Assay Kit from BPS Bioscience (BPS Bioscience 50222). Briefly, the provided BCL TR-FRET assay buffer was diluted 1:3 with ultrapure Milli-Q water. The anti-His terbium-labeled donor and dye-labeled acceptor were each diluted 1:100 with diluted assay buffer. The BCL-2 peptide ligand was thawed on ice and diluted 1:40 with diluted assay buffer, and BCL-2 protein was diluted with diluted assay buffer to a working concentration of 1 ng/μL. Test compounds at the indicated final concentrations were prepared as stock 10% DMSO solutions in ultrapure Milli-Q water. The reaction was performed by combining 5 μL diluted donor. 5 μL diluted acceptor. 2 μL test compound. 5 μL diluted ligand, and 3 μL diluted protein in each well of the provided white, flat-bottom 384-well plate. Positive control reactions had 2 μL 10% DMSO in water in lieu of test compound. Negative control reactions had 2 μL 10% DMSO in water and 5 μL diluted assay buffer in lieu of test compound and diluted ligand. Reactions were incubated at room temperature for 3 hours, and fluorescent intensities were measured using a SpectraMax® M5 plate reader and manufacturer software (SoftMax Pro 6) with the following TR-FRET settings; for terbium-labeled donor emission, ex/em. 340/620 nm: lag time. 100 μs: integration time. 500 μs: for dye-acceptor emission, ex/em. 340/665 nm: lag time. 100 μs; integration time. 500 μs. The TR-FRET ratio. 665 nm emission/620 nm emission, was calculated for all reactions, and percentage activity was calculated by linearly interpolating the positive and negative control TR-FRET ratio values between relative activity values of 0) and 1. Experiments were performed in biological duplicate and repeated on independent occasions.
In general terms: In TR-FRET formats the signal depends on donor and acceptor labels being close together.

A further assay addresses Bcl-XL (Homo sapiens, UniProt Q07817). Description: Bcl-XL TR-FRET. It counts as binding.
The target of another assay is BRD4 (Homo sapiens, UniProt O60885). In words: BRD4 inhibition. It counts as biochemical.
The target of a further assay is Mcl-1 (Homo sapiens, UniProt Q07820). Description: Mcl-1 TR-FRET. Type of assay: binding.
Chain of Mcl-1 (Q07820 whole entry, species assumed): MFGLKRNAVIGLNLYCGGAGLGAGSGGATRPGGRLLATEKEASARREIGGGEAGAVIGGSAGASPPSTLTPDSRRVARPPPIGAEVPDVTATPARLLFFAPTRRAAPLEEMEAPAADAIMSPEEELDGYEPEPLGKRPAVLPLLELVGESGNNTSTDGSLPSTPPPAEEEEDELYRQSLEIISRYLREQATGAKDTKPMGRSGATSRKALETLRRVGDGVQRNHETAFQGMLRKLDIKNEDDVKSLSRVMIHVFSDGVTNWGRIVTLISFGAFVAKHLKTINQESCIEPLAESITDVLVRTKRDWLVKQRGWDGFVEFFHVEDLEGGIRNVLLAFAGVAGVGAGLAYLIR

As usually defined, the IC50 is the point on the concentration scale where inhibition reaches its midpoint. Low readings indicate inhibition by little substance, high ones a need for much substance.

Chain of Bcl-XL (Q07817 whole entry): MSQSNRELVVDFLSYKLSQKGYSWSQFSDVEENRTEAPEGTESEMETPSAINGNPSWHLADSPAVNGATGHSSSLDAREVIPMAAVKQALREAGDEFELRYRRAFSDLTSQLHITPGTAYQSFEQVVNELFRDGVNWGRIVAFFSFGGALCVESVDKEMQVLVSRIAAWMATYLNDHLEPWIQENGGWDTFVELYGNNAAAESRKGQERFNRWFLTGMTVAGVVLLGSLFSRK

For the compound `O=C(Nc1ccc(S(=O)(=O)Nc2ncccn2)cc1)c1ccc(-c2ccccc2)cc1` [BRD-K20733377], the “selectivity against late-passage Sncs compared with ABT-737” value in assay [1] is reported as “similarly selective”. Besides, the half-maximal inhibitory concentration (IC50) with HEK293 cells is 51.1 µM; at Bcl-XL it was about 1 µM; against BRD4 it was about 10 µM. Also, at Bcl-2, the “inhibition of Bcl-2 binding activity to a peptide ligand” value (shortened to “inhibition of Bcl-2 binding activity”) is reported as “inhibited Bcl-2”.
Take `Cc1ccccc1C(=O)Nc1ccc2nc(SCC(=O)Nc3ccccc3)sc2c1` [compound 19]: in assay [1], the “selectivity against late-passage Sncs compared with ABT-737” value is reported as “less”. Further, the IC50 in the assay on HEK293 cells (Homo sapiens, HEK293, 72 h) is 160 µM. Besides, the “inhibition of Bcl-2 binding activity” value on Bcl-2 was “inhibited Bcl-2”.
On to `COc1ccc(C(=O)Nc2ccc3nc(SCC(=O)Nc4ccccc4F)sc3c2)cc1OC` [compound 6], for which the IC50 was 21.4 µM in the assay on HEK293 cells (Homo sapiens, HEK293, 72 h) and at least 100 µM at Mcl-1. Further, the “inhibition of Bcl-2 binding activity” value on Bcl-2 is “inhibited Bcl-2”.
